Laboratory results as given in PMC5909127, “Optimization of a “bump-and-hole” approach to allele-selective BET bromodomain inhibition” (Chemical Science, 2018).

What was measured:
BRD3 BD2 L/V [1] = target: T1, BRD3 BD2 L/V (Homo sapiens, UniProt Q15059, L345V); experiment: ITC; assay type: binding
[2] = test system: L/V somatic BET bromodomains; experiment: ITC; details: L/V minus WT
[3] = target: WT somatic BET bromodomains; experiment: ITC; details: mean and SD of all somatic bromodomains
Intrinsic Clearance = details: mouse liver microsomes
BRD3 BD2 L/V [4] = target: T1, BRD3 BD2 L/V; experiment: competitive AlphaLISA; assay type: binding
BRD2 BD2 L/V [5] = target: T2, BRD2 BD2 L/V (Homo sapiens, UniProt P25440, L383V); experiment: ITC; assay type: binding
BRD4 BD2 WT [6] = target: T3, BRD4 BD2 WT (Homo sapiens, UniProt O60885); experiment: ITC; assay type: binding
BRD4 BD1 L/V [7] = target: T4, BRD4 BD1 L/V (Homo sapiens, UniProt O60885, L94V); experiment: competitive AlphaLISA; assay type: binding
BRD3 BD1 L/V [8] = target: T5, BRD3 BD1 L/V (Homo sapiens, UniProt Q15059, L70V); experiment: competitive AlphaLISA; assay type: binding
BRD2 BD2 WT [9] = target: T6, BRD2 BD2 WT (Homo sapiens, UniProt P25440); experiment: ITC; assay type: binding
BRD2 BD1 WT [10] = target: T7, BRD2 BD1 WT (Homo sapiens, UniProt P25440); experiment: ITC; assay type: binding
BRD4 BD2 L/V [11] = target: T8, BRD4 BD2 L/V (Homo sapiens, UniProt O60885, L387V); experiment: competitive AlphaLISA; assay type: binding
BRD2 BD2 WT [12] = target: T6, BRD2 BD2 WT; experiment: competitive AlphaLISA; assay type: binding
BRDT BD1 L/V = BRDT BD1 L/V (Homo sapiens, UniProt Q58F21, L63V); experiment: competitive AlphaLISA; assay type: binding
[13] = target: WT BET bromodomains (BD1 and BD2 of BRD2, BRD3 and BRD4); experiment: competitive AlphaLISA (Bio-JQ1 displacement); assay type: binding, human; details: mean and SD of all somatic bromodomains; active enantiomer concentration
BRD2 BD1 WT [14] = target: T7, BRD2 BD1 WT; experiment: competitive AlphaLISA; assay type: binding
BRD2 BD2 L/V [15] = target: T2, BRD2 BD2 L/V; experiment: competitive AlphaLISA; assay type: binding
Plasma Half-life = details: BALB/c, mouse, pH 7.4
BRD3 BD2 WT [16] = target: T9, BRD3 BD2 WT (Homo sapiens, UniProt Q15059); experiment: competitive AlphaLISA; assay type: binding
in vitro = details: PAMPA, pH 7.4
BRD3 BD1 WT [17] = target: T10, BRD3 BD1 WT (Homo sapiens, UniProt Q15059); experiment: ITC; assay type: binding
BRDT BD1 WT = BRDT BD1 WT (Homo sapiens, UniProt Q58F21); experiment: competitive AlphaLISA; assay type: binding
BRD4 BD1 WT [18] = target: T11, BRD4 BD1 WT (Homo sapiens, UniProt O60885); experiment: ITC; assay type: binding
BRD3 BD1 L/V [19] = target: T5, BRD3 BD1 L/V; experiment: ITC; assay type: binding
BRD4 BD2 L/V [20] = target: T8, BRD4 BD2 L/V; experiment: ITC; assay type: binding
BRD4 BD1 WT [21] = target: T11, BRD4 BD1 WT; experiment: competitive AlphaLISA; assay type: binding
BRD3 BD1 WT [22] = target: T10, BRD3 BD1 WT; experiment: competitive AlphaLISA; assay type: binding
BRD4 BD2 WT [23] = target: T3, BRD4 BD2 WT; experiment: competitive AlphaLISA; assay type: binding
BRD2 BD1 L/V [24] = target: T12, BRD2 BD1 L/V (Homo sapiens, UniProt P25440, L110V); experiment: ITC; assay type: binding
[25] = test system: L/V BET bromodomains (BD1 and BD2 of BRD2, BRD3 and BRD4); experiment: competitive AlphaLISA (Bio-JQ1 displacement); assay type: binding, human; details: L/V minus WT
BRD4 BD1 L/V [26] = target: T4, BRD4 BD1 L/V; experiment: ITC; assay type: binding; details: for Kd: Kd BRD4 BD1 L/V
BRD3 BD2 WT [27] = target: T9, BRD3 BD2 WT; experiment: ITC; assay type: binding
BRD2 BD1 L/V [28] = target: T12, BRD2 BD1 L/V; experiment: competitive AlphaLISA; assay type: binding
[29] = test system: GFP-BRD4 L/V constructs with NF-κB-RE/luc2P reporter in HEK293T cells; experiment: NF-κB luciferase assay; assay type: cell-based, human; details: 1 µM, inhibiting either individual BD of BRD4
Description: To provide additional functional insights into the individual roles of BD1 vs. BD2 beyond chromatin binding, a luciferase assay was developed to monitor the expression of NF-κB target genes, inspired by work of Zou et al.[45] […] This luciferase induction was maintained with L/V mutations (but not L/A), consistent again with more WT-like functionality of L/V compared to L/A (Fig. 9A).
12 – NF-κB Luciferase Assay
Luciferase experiments were performed in human HEK293T cells seeded in a 24-well plate at 100 000 cells in […]
pBABE NF-κB-RE/luc2P reporter plasmid. Cells were transfected using Lipofectamine™ LTX (Invitrogen) with PLUS™ reagent, with each well receiving 0.5 µg of each plasmid, 2.5 µl LTX and 0.5 µl PLUS reagent. The next day cells were treated with compounds, giving a final concentration of 1 µM compound and 0.01% DMSO. 6 hours later cells were washed with PBS, lysed with passive lysis buffer (Promega) and stored at -20°C.
Luciferase activity was measured suing the Promega luciferase assay. In a black 384-well plate 3µl of clarified lysate was mixed with 15µl luciferase assay reagent and after 15 minutes luminescence was measured in a Pherastar FS. […]
NMR spectra were recorded on a Bruker 500 Ultrashield or a Bruker Ascend 400. […] High Resolution Mass Spectra (HRMS) were recorded on a Bruker micrOTOF. […]

T10 sequence (Q15059 24-144): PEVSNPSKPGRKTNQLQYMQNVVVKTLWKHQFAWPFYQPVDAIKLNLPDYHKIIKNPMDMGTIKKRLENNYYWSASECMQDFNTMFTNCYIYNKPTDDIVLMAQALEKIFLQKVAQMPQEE
T12 sequence (P25440 71-176 L110V limits assumed): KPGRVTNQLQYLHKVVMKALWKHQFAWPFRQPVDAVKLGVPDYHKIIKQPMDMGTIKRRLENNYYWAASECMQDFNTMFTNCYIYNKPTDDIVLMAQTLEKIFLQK
T6 sequence (P25440 344-455): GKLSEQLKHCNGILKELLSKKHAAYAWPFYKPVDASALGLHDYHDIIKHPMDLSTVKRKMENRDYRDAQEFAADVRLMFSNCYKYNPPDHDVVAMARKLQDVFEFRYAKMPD
T2 sequence (P25440 344-455 L383V): as the sequence (P25440 344-455) above, with L40V counted along it
T9 sequence (Q15059 306-416): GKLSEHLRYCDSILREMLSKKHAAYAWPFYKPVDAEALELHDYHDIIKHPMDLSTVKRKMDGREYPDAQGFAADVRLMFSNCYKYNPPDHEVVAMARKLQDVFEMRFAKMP
T5 sequence (Q15059 24-144 L70V limits assumed): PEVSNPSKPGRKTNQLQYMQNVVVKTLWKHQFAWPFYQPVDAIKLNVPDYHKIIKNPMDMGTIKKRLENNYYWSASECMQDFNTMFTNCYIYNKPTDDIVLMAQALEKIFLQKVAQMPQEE
T7 sequence (P25440 71-176): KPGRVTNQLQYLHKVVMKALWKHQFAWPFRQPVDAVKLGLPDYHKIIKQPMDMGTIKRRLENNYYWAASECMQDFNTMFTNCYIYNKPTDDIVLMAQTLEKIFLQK
T1 sequence (Q15059 306-416 L345V limits assumed): as the sequence (Q15059 306-416) above, with L40V counted along it

## C=CC[C@@H](C(=O)OC)[C@@H]1N=C(c2ccc(Cl)cc2)c2cc(OC)ccc2-n2c(C)nnc21 (racemic) [Compound 5, (+-)methyl (R)-2-((S)-6-(4-chlorophenyl)-8-methoxy-1-methyl-4H-benzo[f][1,2,4]triazolo[4,3-a][1,4]diazepin-4-yl)pent-4-enoate]
BRD3 BD2 L/V [1]
  Kd: 310 nM
BRD3 BD2 L/V [1]; ITC
  ΔH BRD3 BD2 L/V: -8.5 kcal/mol
[2]
  ITC pKd ± SD Δ: 1.5 ± 0.5
[3]
  ITC pKd ± SD WT: 5.1 ± 0.4
Intrinsic Clearance
  CL int: 6.7 ml min^–1 g^–1
BRD3 BD2 L/V [4]
  IC50: 126 nM
BRD2 BD2 L/V [5]
  Kd: 240 nM
BRD2 BD2 L/V [5]; ITC
  ΔH BRD2 BD2 L/V: -5.9 kcal/mol
BRD4 BD2 WT [6]; ITC
  ΔH BRD4 BD2 WT: -2.2 kcal/mol
BRD4 BD2 WT [6]; ITC stoichiometry
  N BRD4 BD2 WT: 0.98
BRD4 BD1 L/V [7]; AlphaLISA pIC50 Value BRD4 BD1 L/V
  IC50: 316 nM
BRD3 BD1 L/V [8]
  IC50: 126 nM
BRD2 BD2 WT [9]
  Kd: 5800 nM
BRD2 BD2 WT [9]; ITC
  ΔH BRD2 BD2 WT: -2.3 kcal/mol
BRD2 BD2 WT [9]; ITC stoichiometry
  N BRD2 BD2 WT: 0.75
BRD2 BD1 WT [10]
  Kd: 8400 nM
BRD2 BD1 WT [10]; ITC
  ΔH BRD2 BD1 WT: -4.0 kcal/mol
BRD2 BD1 WT [10]; ITC stoichiometry
  N BRD2 BD1 WT: 1.0
BRD4 BD2 L/V [11]
  IC50: 251 nM
BRD2 BD2 WT [12]
  IC50: 10000 nM
BRDT BD1 L/V
  IC50: 2000 nM
[13]
  AlphaLISA pIC50 ± SD WT: 5.1 ± 0.1
BRD2 BD1 WT [14]
  IC50: 10000 nM
BRD2 BD2 L/V [15]
  IC50: 158 nM
Plasma Half-life
  half-life at 50 µM: > 3 h
BRD3 BD2 WT [16]
  IC50: 10000 nM
In vitro
  Papp: 12.7 ×10⁻⁶ cm/s
BRD3 BD1 WT [17]
  Kd: 1500 nM
BRD3 BD1 WT [17]; ITC
  ΔH BRD3 BD1 WT: -2.3 kcal/mol
BRD3 BD1 WT [17]; ITC stoichiometry
  N BRD3 BD1 WT: 0.85
BRDT BD1 WT
  IC50: 20000 nM
BRD4 BD1 WT [18]
  Kd: 9700 nM
BRD4 BD1 WT [18]; ITC
  ΔH BRD4 BD1 WT: -3.5 kcal/mol
BRD4 BD1 WT [18]; ITC stoichiometry
  N BRD4 BD1 WT: 1.10
BRD3 BD1 L/V [19]
  Kd: 270 nM
BRD3 BD1 L/V [19]; ITC
  ΔH BRD3 BD1 L/V: -11.3 kcal/mol
BRD4 BD2 L/V [20]
  Kd: 170 nM
BRD4 BD2 L/V [20]; ITC
  ΔH BRD4 BD2 L/V: -6.4 kcal/mol
BRD4 BD1 WT [21]; AlphaLISA pIC50 Value BRD4 BD1 WT
  IC50: 7940 nM
BRD3 BD1 WT [22]
  IC50: 3980 nM
BRD4 BD2 WT [23]
  IC50: 10000 nM
BRD2 BD1 L/V [24]
  Kd: 470 nM
BRD2 BD1 L/V [24]; ITC
  ΔH BRD2 BD1 L/V: -10.3 kcal/mol
[25]
  AlphaLISA pIC50 ± SD Δ: 1.5 ± 0.3
BRD4 BD1 L/V [26]; ITC
  ΔH BRD4 BD1 L/V: -7.4 kcal/mol
BRD4 BD1 L/V [26]; ITC, 30°C
  Kd: 180 nM
BRD3 BD2 WT [27]
  Kd: 23000 nM
BRD3 BD2 WT [27]; ITC
  ΔH BRD3 BD2 WT: -3.7 kcal/mol
BRD2 BD1 L/V [28]
  IC50: 1000 nM

## CC[C@@H](C(=O)OC)[C@@H]1N=C(c2ccc(Cl)cc2)c2ccc(OC)cc2-n2c(C)nnc21 (relative stereo) [(2R,3S)-8]
BRD4 BD1 L/V [7]; L/V minus WT, total compound concentration
  ΔpIC50 BRD4 BD1: 1.8
BRD4 BD1 L/V [7]; pIC50 BRD4 BD1 L/V, separated enantiomers test, total compound concentration
  IC50: 1260 nM
[29]
  effect on NF-κB signalling: strongly impacted on NF-κB signalling
BRD4 BD1 WT [18]
  Kd: > 60000 nM
BRD4 BD1 WT [21]; pIC50 BRD4 BD1 WT, separated enantiomers test, total compound concentration
  IC50: 79400 nM
BRD4 BD1 L/V [26]; ITC stoichiometry, total compound concentration
  N BRD4 BD1 L/V: 0.85 ±0.01
BRD4 BD1 L/V [26]; ITC, total compound concentration
  ΔH BRD4 BD1 L/V: -6.5 ± 0.1 kcal/mol
BRD4 BD1 L/V [26]; ITC of separated enantiomers and racemates, total compound concentration
  Kd: 440 ± 50 nM
